Data reported in US6528528B2 (Warner-Lambert Company, priority 1997, dated 2003).

Key:
[1] = target: T1, rabbit reticulocyte 15-LO (Oryctolagus cuniculus, UniProt P12530); experiment: Rabbit Reticulocyte 15-LO Assay (h15LO); format: biochemical; settings: for IC50: 2U rabbit reticulocyte 15-LO, 174 μM linoleic acid, 15 minutes at 4° C.; for h15LO, value given as bare %: concentration not given; for inhibition at 10 µM: read-out: h15LO % Inhibition at 10 μM
T1 construct: Fifteen-lipoxygenase was obtained from phenylhydrazine-treated rabbits and purified per the method of Rapoport; from tissue; host or cells: reticulocytes of phenylhydrazine-treated rabbits
T1 sequence (P12530 1-663): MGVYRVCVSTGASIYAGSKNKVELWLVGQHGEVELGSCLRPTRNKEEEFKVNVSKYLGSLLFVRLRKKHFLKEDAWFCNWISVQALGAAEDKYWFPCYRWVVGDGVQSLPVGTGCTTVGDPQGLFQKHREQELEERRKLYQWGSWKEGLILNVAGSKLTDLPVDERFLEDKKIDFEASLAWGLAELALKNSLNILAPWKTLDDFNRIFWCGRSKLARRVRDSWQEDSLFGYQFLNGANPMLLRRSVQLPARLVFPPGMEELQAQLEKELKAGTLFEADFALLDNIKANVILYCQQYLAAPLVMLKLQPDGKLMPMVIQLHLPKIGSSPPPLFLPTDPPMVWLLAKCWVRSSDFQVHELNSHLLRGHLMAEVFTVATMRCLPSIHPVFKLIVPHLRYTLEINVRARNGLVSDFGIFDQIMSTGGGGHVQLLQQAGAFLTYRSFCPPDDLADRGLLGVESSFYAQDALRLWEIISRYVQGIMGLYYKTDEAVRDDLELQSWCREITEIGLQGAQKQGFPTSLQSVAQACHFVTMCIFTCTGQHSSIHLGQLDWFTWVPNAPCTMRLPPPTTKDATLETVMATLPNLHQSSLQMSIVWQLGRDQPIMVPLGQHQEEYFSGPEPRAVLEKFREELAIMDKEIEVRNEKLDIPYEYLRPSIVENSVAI
Method in brief: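 Linoleic acid oxidation to 13-HPODE measured at 4° C. over 15 minutes, using 174 μM substrate and 2U enzyme purified from phenylhydrazine-treated rabbits in PBS/0.2% Na cholate. Product peak areas calibrated with authentic 13-HODE; inhibition expressed versus maximal reaction.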

| Compound | IC50 ([1]; Table 2) [nM] | melting point [°C] | IC50 ([1]; Table 1) [nM] | h15LO, value given as bare % ([1]; Table 2) [%] | inhibition at 10 µM ([1]; Table 1) [%] |
| --- | --- | --- | --- | --- | --- |
| COc1ccccc1Nc1cc(C(=O)Nc2ccccc2)ccc1OC [Example 29, 3-(2-Methoxy-phenylamino)-4-methoxy-N-phenyl-benzamide] | > 3000 | 155 to 156 | – | – | – |
| COc1ccc(C(=O)Nc2ccccc2)cc1NCc1ccccc1 [Example 50, 3-Benzylamino-4-methoxy-N-phenyl-benzamide] | 846 | 164 to 165 | – | – | – |
| Cc1ccc(C(=O)Nc2ccccc2)cc1NC(=S)Nc1cc(Cl)cc(Cl)c1 [Example 71, 3-[3-(3,5-Dichlorophenyl)-thioureido]-4-methyl-N-phenyl-benzamide] | 526 | 182 to 184 | – | – | – |
| CCc1ccc(C(=O)Nc2ccc(Cl)c(Cl)c2)cc1N [Example 18, 3-Amino-4-ethyl-N-(3,4-dichlorophenyl)-benzamide] | – | 115 to 117 | 2510 | – | – |
| COc1ccc(NC(=O)c2ccc(O)c(Nc3cc(Cl)cc(Cl)c3)c2)cc1O [Example 59, 3-(3,5-Dichloro-phenylamino)-4-hydroxy-N-(3-hydroxy-4-methoxyphenyl)-benzamide] | 1460 | 170 to 171 | – | – | – |
| CCOc1ccc(C(=O)Nc2ccccc2)cc1N [Example 10, 3-Amino-4-ethoxy-N-phenyl-benzamide] | – | 189 to 190 | – | – | 42 |
| Cc1ccc(NC(=O)c2ccc(O)c(Nc3cc(Cl)cc(Cl)c3)c2)cc1 [Example 58, 3-(3,5-Dichloro-phenylamino)-4-hydroxy-N-(4-methylphenyl)-benzamide] | 80 | 179 to 183 | – | – | – |
| COc1ccc(C(=O)Nc2ccc(C)cc2)cc1N [Example 7, 3-Amino-4-methoxy-N-(4-methylphenyl)-benzamide] | – | 190 to 194 | – | – | 67 |
| COc1ccc(C(=O)Nc2ccc(F)cc2)cc1N [Example 8, 3-Amino-4-methoxy-N-(4-fluorophenyl)-benzamide] | – | 164 to 167 | 157 | – | – |
| COc1ccc(C(=O)Nc2ccccc2)cc1NC(=S)Nc1ccc(N(C)C)cc1 [Example 93, 3-[3-(4-Dimethylaminophenyl)-thioureido]-4-methoxy-N-phenyl-benzamide] | 82 | 179 to 180 | – | – | – |
| COc1ccc(C(=O)Nc2ccc(Cl)c(Cl)c2)cc1NC(=S)Nc1cc(Cl)cc(Cl)c1 [Example 97, N-(3,4-Dichlorophenyl)-3-[3-(3,5-dichlorophenyl)-thioureido]-4-methoxy-benzamide] | 19 | 189 to 191 | – | – | – |
| COc1ccc(C(=O)Nc2ccc(F)c(F)c2)cc1N [Example 15, 3-Amino-4-methoxy-N-(3,4-difluorophenyl)-benzamide] | – | 171 to 172 | 9 | – | – |
| COc1ccc(C(=O)Nc2ccc(F)cc2F)cc1N [Example 14, 3-Amino-4-methoxy-N-(2,4-difluorophenyl)-benzamide] | – | 166 to 168 | – | – | 68 |

Continued, values first:

| IC50 ([1]; Table 2) [nM] | melting point [°C] | IC50 ([1]; Table 1) [nM] | h15LO, value given as bare % ([1]; Table 2) [%] | inhibition at 10 µM ([1]; Table 1) [%] | Compound |
| --- | --- | --- | --- | --- | --- |
| 79 | 169 to 170 | – | – | – | CCc1ccc(C(=O)Nc2ccc(F)c(F)c2)cc1NC(=S)Nc1cccc(C(F)(F)F)c1 [Example 111, 4-Ethyl-N-(3,4-difluorophenyl)-3-[3-(3-trifluoromethyl-phenyl)-thioureido]-benzamide] |
| 48 | 191 to 193 | – | – | – | COc1ccc(C(=O)Nc2ccccc2)cc1NS(=O)(=O)c1ccc(Cl)c(Cl)c1 [Example 136, 3-(3,4-Dichloro-benzenesulfonylamino)-4-methoxy-N-phenyl-benzamide] |
| 629 | 165 to 166 | – | – | – | O=C(Nc1ccc(F)cc1)c1ccc(OC(F)(F)F)c(NC(=S)Nc2cc(Cl)cc(Cl)c2)c1 [Example 163, 3-[3-(3,5-Dichloro-phenyl)-thioureido]-4-trifluoromethoxy-N-(4-fluoro-phenyl)-benzamide] |
| 31 | 197 to 199 | – | – | – | COc1ccc(C(=O)Nc2ccccc2)cc1NS(=O)(=O)c1cccc(Cl)c1 [Example 123, 3-(3-Chloro-benzenesulfonylamino)-4-methoxy-N-phenyl-benzamide] |
| 13 | 195 to 196 | – | – | – | COc1ccc(C(=O)Nc2ccc(C)c(Cl)c2)cc1NC(=S)Nc1cc(Cl)cc(Cl)c1 [Example 104, N-(3-Chloro-4-methylphenyl)-3-[3-(3,5-dichlorophenyl)-thioureido]-4-methoxy-benzamide] |
| – | 225 to 227 | – | 45 | – | COc1ccc(C(=O)Nc2ccccc2)cc1NC(=NC#N)Nc1cc(Cl)cc(Cl)c1 [Example 256, 3-[[(Cyanoimino)[(3,5-dichlorophenyl)amino]methyl]amino]-4-methoxy-N-phenyl-benzamide] |
| 25 | 184 to 186 | – | – | – | COc1ccc(S(=O)(=O)Nc2cc(C(=O)Nc3ccccc3)ccc2OC)cc1 [Example 121, 3-(4-Methoxy-benzenesulfonylamino)-4-methoxy-N-phenyl-benzamide] |
| 54 | 197 to 198 | – | – | – | COc1ccc(C(=O)Nc2ccccc2)cc1NS(=O)(=O)c1ccc(C(F)(F)F)cc1 [Example 128, 3-(4-Trifluoromethyl-benzenesulfonylamino)-4-methoxy-N-phenyl-benzamide] |
| – | 139 to 140 | – | 35.29 | – | Nc1cc(C(=O)Nc2ccc(F)cc2)ccc1OC(F)(F)F [Example 146, 3-Amino-4-trifluoromethoxy-N-(4-fluoro-phenyl)-benzamide] |
| 104 | 250 to 251 | – | – | – | COc1ccc(C(=O)Nc2ccccc2)cc1NS(=O)(=O)c1ccc(NC(C)=O)cc1 [Example 139, 3-(4-Acetylamino-benzenesulfonylamino)-4-methoxy-N-phenyl-benzamide] |
| 402 | 187 to 188 | – | – | – | COc1ccc(C(=O)Nc2ccccc2)cc1NS(=O)(=O)c1cccc2cccnc12 [Example 130, 3-(Quinoline-8-sulfonylamino)-4-methoxy-N-phenyl-benzamide] |
| 1000 | 172 to 174 | – | – | – | COc1ccc(C(=O)Nc2ccccc2)cc1NC(=S)Nc1ccccc1C [Example 98, 4-Methoxy-N-phenyl-3-(3-o-tolyl-thioureido)-benzamide] |
| – | 105 to 108 | – | 80.94 | – | COc1ccc(CNc2ccccc2)cc1NS(=O)(=O)c1cc(Cl)cc(Cl)c1 [Example 209, 3,5-Dichloro-N-(2-methoxy-5-phenylaminomethyl-phenyl)-benzenesulfonamide] |
| – | 142 to 144 | – | 60.56 | – | COc1ccc(C(=O)Nc2ccccc2)cc1NCCc1cccc(C(F)(F)F)c1 [Example 253, 4-Methoxy-N-phenyl-3-[2-(3-trifluoromethyl-phenyl)-ethylamino]-benzamide] |
| – | 168 to 171 | – | 43 | – | COc1ccc(C(=O)Nc2ccccc2)cc1NC(=O)CC(=O)OCc1ccccc1 [Example 252, (2-Methoxy-5-phenylcarbamoyl-phenylcarbamoyl)-acetic acid phenylmethyl Ester] |
| 187 | 208 to 210 | – | – | – | COc1ccc(C(=O)Nc2ccccc2)cc1NS(=O)(=O)c1cccc([N+](=O)[O-])c1 [Example 122, 3-(3-Nitro-benzenesulfonylamino)-4-methoxy-N-phenyl-benzamide] |
